Reference: patent US20230416168A1 (EUROCHEM ANTWERPEN, priority 2020, published 2023)

Tests used:
[1] = tested on: Sint-Laureins soil; experiment: Greenhouse gas emissions from soil fertilized with ammonium, Sint-Laureins soil
Method: (§1) Two agricultural soils coming from fields in Moorslede and Sint-Laureins were used. Screw top vials were filled with 10 g soil. Vials were sealed with Parafilm and preincubated at 21° C. in the dark for 5 days. After pre-incubation, vials were ventilated using a fan. The 100 μL of a 1 mM compound solution (10% DMSO) was added, immediately followed by the addition of 100 μL 200 mM NH4Cl. Vials were closed gastight and 5 mL synthetic air was added to the headspace using a plastic syringe, followed by the transfer of 5 mL headspace to an evacuated 3 mL exetainer. Vials were incubated at 21° C. in the dark and background NO concentration was noted. At each sampling timepoint, 5 mL synthetic air was added again to the headspace using a plastic syringe, again followed by the transfer of 5 mL headspace to an evacuated 3 mL exetainer. Vials were ventilated and closed again, and new gas samples were transferred to texetainers like before. N2O, CO2, CH4 in the exetainers were measured via gas chromatography. NO concentration was measured directly.
(§2) To further confirm the inhibitory effect of the new class of nitrification inhibitors on nitrogen losses, gas emissions from soil fertilized with ammonium and treated with 1,3-thiazolidine-2-thione were captured. NO, N2O, CO2 and CH4 was measured.

[2] = tested on: Moorslede soil; experiment: In soil nitrification inhibition assay, Moorslede soil; settings: soil, 120 h; 20 μM; 5 days; read-out: Average % nitrification inhibition in soil (5 days of incubation, Moorslede soil) at 20 μM
Method: Top layer (0 to 10 cm) soil samples were collected from different fields in Belgium (Merelbeke and Moorslede). Vegetation on the field trial was removed and samples were taken from different plots. All soil samples were mixed and sieved (mesh size 2.8 mm) to filter large debris and homogenize soil. The soil was stored at 5° C. in plastic containers covered with Saran foil to prevent changes in microbial community composition and to maintain the original soil water content.
Soil water content was determined by drying 20 g soil for 48 h in a 60° C. oven and measuring weight before and after drying. Based on the soil water content (±20%), compound solutions were prepared so that addition of 200 μl compound and 200 μl NH4Cl solution would result in a final compound concentration of 50 μM and a final NH4^+ concentration of 10 mM. Per treatment, 5 small pots were filled with 20 g soil. Next, the soil was treated first with the respective compound solution and then with the NH4Cl solution. Per tray, positive (50 μM DMP) and negative controls (DMSO) were included. Pots were incubated at 21° C. (6 a.m. to 10 p.m. light) for 7 days. Demineralized water was added to the soil every 2 to 3 days to a soil weight of 20 g. In the end, each sample of 20 g soil was dissolved in 100 ml 1M KCl and shaken for 1 hour, followed by filtration through Whatmann® paper. The filtrate was used to measure pH, NH4^+ and NO3− concentrations.
A set of examples was tested in the same conditions (Moorslede soil, 3 days of incubation) at a concentration of 50 μM.
Another set of examples was tested in different concentrations in Moorslede soil as well, and were sampled after 5 days.
The effect of 3H-1,3-thiazole-2-thione was tested in soil in accordance with the test described above in section 3.3.

[3] = tested on: Moorslede soil; experiment: Greenhouse gas emissions from soil fertilized with ammonium, Moorslede soil
Method: as §1, §2

## S=C1NCCS1 [Example 3, 1,3-thiazolidine-2-thione]
[1]; CH4, 4 h
  Cumulative emission at indicated timepoint [ppm]: 0.00 ppm
[1]; CH4, 24 h
  Cumulative emission at indicated timepoint [ppm]: 0.10 ppm
[1]; CH4, 48 h
  Cumulative emission at indicated timepoint [ppm]: 0.16 ppm
[1]; CH4, 72 h
  Cumulative emission at indicated timepoint [ppm]: 0.25 ppm
[1]; CH4, 99 h
  Cumulative emission at indicated timepoint [ppm]: 0.25 ppm
[1]; CO2, 4 h
  Cumulative emission at indicated timepoint [ppm]: 372 ppm
[1]; CO2, 24 h
  Cumulative emission at indicated timepoint [ppm]: 1179 ppm
[1]; CO2, 48 h
  Cumulative emission at indicated timepoint [ppm]: 2094 ppm
[1]; CO2, 72 h
  Cumulative emission at indicated timepoint [ppm]: 3101 ppm
[1]; CO2, 99 h
  Cumulative emission at indicated timepoint [ppm]: 4168 ppm
[1]; N2O, 4 h
  Cumulative emission at indicated timepoint [ppm]: 0 ppm
[1]; N2O, 24 h
  Cumulative emission at indicated timepoint [ppm]: 0 ppm
[1]; N2O, 48 h
  Cumulative emission at indicated timepoint [ppm]: 1 ppm
[1]; N2O, 72 h
  Cumulative emission at indicated timepoint [ppm]: 1 ppm
[1]; N2O, 99 h
  Cumulative emission at indicated timepoint [ppm]: 2 ppm
[1]; NO, 4 h
  Cumulative emission at indicated timepoint [ppm]: 17 ppm
[1]; NO, 24 h
  Cumulative emission at indicated timepoint [ppm]: 52 ppm
[1]; NO, 48 h
  Cumulative emission at indicated timepoint [ppm]: 86 ppm
[1]; NO, 72 h
  Cumulative emission at indicated timepoint [ppm]: 140 ppm
[1]; NO, 99 h
  Cumulative emission at indicated timepoint [ppm]: 161 ppm
[1]; cumulative, incubation of 99 h
  effect on CH4 emission, in words: No significant effects
  effect on CO2 emission, in words: strongly reduced
  effect on N2O emission, in words: strongly reduced
  effect on NO emission, in words: strongly reduced
[2]
  inhibition at 20 µM: 7%
[3]; CH4, 4 h
  Cumulative emission at indicated timepoint [ppm]: 0.20 ppm
[3]; CH4, 24 h
  Cumulative emission at indicated timepoint [ppm]: 0.38 ppm
[3]; CH4, 48 h
  Cumulative emission at indicated timepoint [ppm]: 0.38 ppm
[3]; CH4, 72 h
  Cumulative emission at indicated timepoint [ppm]: 0.51 ppm
[3]; CH4, 99 h
  Cumulative emission at indicated timepoint [ppm]: 0.51 ppm
[3]; CO2, 4 h
  Cumulative emission at indicated timepoint [ppm]: 619 ppm
[3]; CO2, 24 h
  Cumulative emission at indicated timepoint [ppm]: 2385 ppm
[3]; CO2, 48 h
  Cumulative emission at indicated timepoint [ppm]: 4261 ppm
[3]; CO2, 72 h
  Cumulative emission at indicated timepoint [ppm]: 6195 ppm
[3]; CO2, 99 h
  Cumulative emission at indicated timepoint [ppm]: 8131 ppm
[3]; N2O, 4 h
  Cumulative emission at indicated timepoint [ppm]: 0 ppm
[3]; N2O, 24 h
  Cumulative emission at indicated timepoint [ppm]: 0 ppm
[3]; N2O, 48 h
  Cumulative emission at indicated timepoint [ppm]: 0 ppm
[3]; N2O, 72 h
  Cumulative emission at indicated timepoint [ppm]: 0 ppm
[3]; N2O, 99 h
  Cumulative emission at indicated timepoint [ppm]: 0 ppm
[3]; NO, 4 h
  Cumulative emission at indicated timepoint [ppm]: 25 ppm
[3]; NO, 24 h
  Cumulative emission at indicated timepoint [ppm]: 28 ppm
[3]; NO, 48 h
  Cumulative emission at indicated timepoint [ppm]: 43 ppm
[3]; NO, 72 h
  Cumulative emission at indicated timepoint [ppm]: 65 ppm
[3]; NO, 99 h
  Cumulative emission at indicated timepoint [ppm]: 65 ppm
[3]; cumulative, incubation of 99 h
  effect on CH4 emission, in words: No significant effects
  effect on CO2 emission, in words: strongly reduced
  effect on N2O emission, in words: strongly reduced
  effect on NO emission, in words: strongly reduced
